According to PMC12116762, “Topobexin targets the Topoisomerase II ATPase domain for beta isoform-selective inhibition and anthracycline cardioprotection” (Nature Communications, 2025):
pIC50: −log10 of the molar value. Values joined by “and” are separate entries in the source; they are usually repeats but may differ in a detail not shown here. Equal entries are not always repeated.

Legend:
TOP2B C88Y = biological target: T1, TOP2B C88Y (Homo sapiens, UniProt Q02880, C93Y); experiment: ATPase activity of TOP2B C88Y mutant; assay type: biochemical; details: for effect of C88Y mutation in TOP2B on inhibition: vs TOP2B WT
T1 construct: Using recombinant full-length human TOP2A and TOP2B enzymes; YFP (N, cleaved yes); made in house; host or cells: HEK293F
T1 sequence (Q02880 1-1621 isoform Q02880-2 C88Y): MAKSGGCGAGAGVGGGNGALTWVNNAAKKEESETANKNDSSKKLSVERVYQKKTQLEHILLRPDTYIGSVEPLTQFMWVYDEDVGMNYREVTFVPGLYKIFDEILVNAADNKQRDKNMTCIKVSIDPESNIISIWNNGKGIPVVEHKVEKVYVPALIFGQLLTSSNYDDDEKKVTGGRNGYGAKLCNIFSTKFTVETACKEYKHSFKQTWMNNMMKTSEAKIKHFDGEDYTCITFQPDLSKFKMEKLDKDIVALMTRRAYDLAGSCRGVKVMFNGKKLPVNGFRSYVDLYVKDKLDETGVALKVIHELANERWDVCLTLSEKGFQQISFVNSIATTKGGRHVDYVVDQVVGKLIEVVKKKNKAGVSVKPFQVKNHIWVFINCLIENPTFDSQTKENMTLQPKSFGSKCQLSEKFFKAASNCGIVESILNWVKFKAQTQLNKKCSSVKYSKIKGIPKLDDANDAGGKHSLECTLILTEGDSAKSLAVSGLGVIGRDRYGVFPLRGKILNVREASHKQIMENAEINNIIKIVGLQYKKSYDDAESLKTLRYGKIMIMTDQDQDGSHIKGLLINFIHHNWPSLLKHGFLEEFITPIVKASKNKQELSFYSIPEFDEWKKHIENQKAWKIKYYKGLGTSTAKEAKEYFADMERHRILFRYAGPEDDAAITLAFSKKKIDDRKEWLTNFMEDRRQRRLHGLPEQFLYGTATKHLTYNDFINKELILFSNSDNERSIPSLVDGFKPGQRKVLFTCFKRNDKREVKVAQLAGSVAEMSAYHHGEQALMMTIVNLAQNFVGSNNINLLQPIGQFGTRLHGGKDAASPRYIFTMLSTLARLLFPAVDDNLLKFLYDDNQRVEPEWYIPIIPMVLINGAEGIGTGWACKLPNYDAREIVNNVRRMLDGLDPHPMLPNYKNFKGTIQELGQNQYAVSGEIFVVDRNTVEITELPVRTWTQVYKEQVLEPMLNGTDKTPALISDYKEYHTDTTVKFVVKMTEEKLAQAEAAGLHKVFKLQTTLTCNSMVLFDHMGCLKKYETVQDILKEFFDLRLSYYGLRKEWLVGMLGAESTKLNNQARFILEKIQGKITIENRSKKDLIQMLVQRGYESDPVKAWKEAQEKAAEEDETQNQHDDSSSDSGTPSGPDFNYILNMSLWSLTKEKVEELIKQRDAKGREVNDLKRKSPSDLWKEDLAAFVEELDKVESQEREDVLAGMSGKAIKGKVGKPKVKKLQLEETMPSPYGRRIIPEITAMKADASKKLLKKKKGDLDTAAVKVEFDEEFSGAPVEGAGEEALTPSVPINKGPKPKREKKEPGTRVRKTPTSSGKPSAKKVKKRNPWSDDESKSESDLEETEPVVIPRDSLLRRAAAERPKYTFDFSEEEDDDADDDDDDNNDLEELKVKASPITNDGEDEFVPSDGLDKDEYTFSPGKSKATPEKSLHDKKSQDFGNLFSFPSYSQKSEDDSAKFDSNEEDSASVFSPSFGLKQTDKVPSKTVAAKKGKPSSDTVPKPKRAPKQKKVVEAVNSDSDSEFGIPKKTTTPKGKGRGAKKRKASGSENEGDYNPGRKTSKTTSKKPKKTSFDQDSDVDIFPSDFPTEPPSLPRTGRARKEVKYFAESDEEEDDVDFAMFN
Description: The human topoisomerase II decatenation assay was performed to determine the inhibitory effects of BNS-22 and new compounds as previously described with minor modifications[14],[36]. The assay was performed using recombinant human TOP2A or TOP2B generated using the HEK293F YFP-tag expression system as previously described[18],[19],[36]. Briefly, plasmids encoding YFP-TOP2A or YFP-TOP2B were transfected into HEK293F cells (Catalog number 11625019, Thermofisher Scientific), and TOP2 proteins were isolated from cell lysates by anti-YFP nanobody affinity chromatography. After elution by TEV protease cleavage, TOP2 proteins were FPLC purified by sequential cation exchange and size exclusion chromatography. Plasmid encoding TOP2B C88Y was generated by round-the-horn PCR mutagenesis and the sequence was verified by full-plasmid sequencing. Purified TOP2 proteins were stored in a storage buffer containing 20 mM HEPES pH 7.5, 500 mM NaCl, 0.5 mM TCEP, 25% (v/v) glycerol at -80 °C. For decatenation assays, purified TOP2 proteins were incubated with 200 ng kDNA (Topogen) in a reaction buffer containing 50 mM Tris−HCl (pH 8), 100 mM NaCl, 10 mM MgCl2, 0.5 mM DTT, 2 mM ATP, 0.1 mM tris(2-carboxyethyl)phosphine (TCEP), 5% (v/v) glycerol, 70 μg/mL bovine serum albumin, and 1/10 volume of each compound diluted in 10% DMSO (final DMSO concentration 1%) for 40 min at 37 °C. The reaction was then stopped by the addition of gel loading buffer (0.5 volumes of 60% (w/v) glycerol, 60 mM EDTA, 20 mM Tris−HCl (pH 7.5), 0.5 mg/mL bromophenol blue) and the samples were placed on ice. Reaction products were resolved by agarose gel electrophoresis in TBE buffer containing GelRed stain (Biotium). Gels were visualized using an iBright CL1000 (Thermofisher Scientific). Band intensities were quantified using FIJI, and the signal of the treated samples was normalized to the value of the control (untreated sample; 100%) present on the same gel. The normalized signal of three independent measurements was then expressed as mean ± SD. Each presented data point was obtained from distinct sample. Normalized values were plotted as a function of inhibitor concentration to determine IC50 values by nonlinear regression with variable slope using Prism 9 (GraphPad).
Topoisomerase proteins were diluted to 500 nM in storage buffer containing 20 mM HEPES pH 7.5, 500 mM NaCl, 0.5 mM TCEP, 25% glycerol, and 0.2 mg/mL BSA prior to use. A coupled assay was used to measure TOP2-catalyzed ATP hydrolysis in vitro[37] in Costar 96-well plates (Corning Incorporated). […] Reaction plates were pre-warmed to 30 °C for 5 min and ATP was added last to initiate the reaction. The reaction plate was placed in a CLARIOstarPlus plate reader (BMG Labtech) to measure NADH fluorescence at 30 °C every 30 s over 120 cycles using a 340-60 excitation filter and a 480-100 emission filter. Background fluorescence signals calculated from wells containing no ATP were subtracted from each measurement. The slope of NADH fluorescence decay in each well was calculated using the MARS software (BMG Labtech) and reaction wells that lacked topoisomerase inhibitor to account for photobleaching of NADH fluorescence served as background subtraction. Each presented data point was obtained from distinct sample. Values were normalized to untreated controls and plotted as a function of inhibitor concentration to determine IC50 values using Prism 9 (GraphPad).

caspase 8 = experiment: Caspase 8 activity in NVCM (Caspase-Glo); assay type: cell-based, rat; details: for Csp8 activity: independent replicates
Description: Caspase activity was assessed on NVCM cells using luciferase-based kits for caspase 3/7, 8 and 9 (Caspase-Glo® 3/7, 8 and 9 assay systems; Promega) according to the manufacturer’s instructions on 384-well plates (Greiner Bio-One). Luminescence signal was measured using Tecan M200 multifunctional plate-reader. All measured groups were corrected for total protein concentration (BCA assay) and were expressed as fold change of the signal over corresponding untreated control group. Each presented data point was obtained from distinct sample. Statistical significance was determined using ratio paired t-test, two-tailed.

γH2AX = experiment: Acute DAU-induced DNA damage (γH2AX) in rabbit LV myocardium; assay type: in vivo; parameters: γH2AX in LV myocardium: scale not given here; details: for γH2AX in LV myocardium: individual animals
Description: For the determination of γH2aX protein in in vivo experiments, pulverized rabbit LV samples were homogenized in commercial 1× SDS Lysis Buffer (PhosphoSolutions) with phosphatase and protease inhibitor solutions (Thermo Fisher Scientific and Roche, respectively) and boiled at 95 °C for 10 min. Protein concentrations were assessed by the BCA Protein Assay Kit (Sigma-Aldrich), and 85 μg of protein were loaded into Mini-PROTEAN 12% TGX Precast Stain-free Gel (Bio-Rad). After separation, the proteins were transferred onto a nitrocellulose membrane using a Trans-Blot Turbo System (all Bio-Rad). Mouse monoclonal anti-γH2AX (1:800, ab26350, Abcam) was used as the primary antibody, and horseradish peroxidase-conjugated goat anti-mouse immunoglobulin (1:1000, P044701, DAKO) was used as the secondary antibody. The BM Chemiluminescence Blotting Substrate (Roche) and Fusion Solo S coupled with CCD camera (Vilber) were used for signal detection.
Rabbits (n = 24) were divided equally into four groups (n = 6 in each) receiving a single dose as follows: DAU (3 mg/kg, i.v. bolus), saline (1 ml/kg, i.v., the control group), topobexin (9) alone (10 mg/kg, prepared and administered as describe above in the pharmacokinetic study, i.e., in 20 min i.v. infusion) and the combination group (topobexin (9) 10 mg/kg via 20 min i.v. infusion followed by DAU 3 mg/kg as i.v. bolus into the contralateral ear 40 min after the end of topobexin (9) infusion). Based on preliminary data, the experiment was completed 90 min after administration of DAU or saline. The heart was excised and γH2AX as a marker of DNA damage was determined in myocardial homogenates using Western blotting as described above.

SMILES	pIC50 (TOP2B C88Y)	effect of C88Y mutation in TOP2B on inhibition (TOP2B C88Y)	Csp8 activity, mean (caspase 8; DAU 1.2 μM alone) [fold change]	Csp8 activity (caspase 8; DAU 1.2 μM alone)	γH2AX in LV myocardium (γH2AX; DAU 3 mg/kg alone, 1.5 h)	remaining activity at 0.0625 µM (TOP2B C88Y; 0.0625 μM, independent replicates, normalized to 0 drug) [%]	remaining activity at 0.125 µM (TOP2B C88Y; 0.125 μM, independent replicates, normalized to 0 drug) [%]	remaining activity at 0.25 µM (TOP2B C88Y; 0.25 μM, independent replicates, normalized to 0 drug) [%]	remaining activity at 0.5 µM (TOP2B C88Y; 0.5 μM, independent replicates, normalized to 0 drug) [%]	remaining activity at 1 µM (TOP2B C88Y; 1 μM, independent replicates, normalized to 0 drug) [%]	remaining activity at 2 µM (TOP2B C88Y; 2 μM, independent replicates, normalized to 0 drug) [%]	remaining activity at 4 µM (TOP2B C88Y; 4 μM, independent replicates, normalized to 0 drug) [%]	remaining activity at 8 µM (TOP2B C88Y; 8 μM, independent replicates, normalized to 0 drug) [%]	Csp8 activity, mean (caspase 8; Cmpd 9 10 μM + DAU 1.2 μM) [fold change]	Csp8 activity (caspase 8; Cmpd 9 10 μM + DAU 1.2 μM)	Csp8 activity, mean (caspase 8; Cmpd 9 10 μM alone) [fold change]	Csp8 activity (caspase 8; Cmpd 9 10 μM alone)	DAU-induced DNA damage (γH2AX) in LV myocardium (γH2AX; 10 mg/kg before DAU 3 mg/kg, 1.5 h after DAU)	γH2AX in LV myocardium (γH2AX; Topobexin alone 10 mg/kg)	γH2AX in LV myocardium (γH2AX; Topobexin+DAU)
CCCc1cc(=O)oc2c(C(=O)N3CCCc4ccccc43)c(OC)cc(OC)c12 [BNS-22]	5.81	did not alter inhibition	–	–	–	–	–	–	–	–	–	–	–	–	–	–	–	–	–	–
COc1cccc2c1C(=O)c1c(O)c3c(c(O)c1C2=O)C[C@@](O)(C(C)=O)C[C@@H]3O[C@H]1C[C@H](N)[C@H](O)[C@H](C)O1 [DAU, daunorubicin, reference compound]	–	–	2.2056	1.777 fold change and 1.7129 fold change and 3.182 fold change and 1.952 fold change and 2.3428 fold change and 2.2669 fold change	10.11 and 5.83 and 6.97 and 6.98 and 3.35 and 7.46	–	–	–	–	–	–	–	–	–	–	–	–	–	–	–
CCCc1cc(=O)oc2c(C(=O)N3CCCc4ccccc43)c(OCCN3CCN(C)CC3)ccc12 [topobexin (9)]	5.73	conferred significant resistance to inhibition	–	–	–	98.2	97.9	95.9	84.7	69.3	43.5	18.5	6.37	1.776	1.323 fold change and 1.259 fold change and 2.008 fold change and 1.4395 fold change and 2.674 fold change and 1.95 fold change	1.035	0.9315 fold change and 1.0306 fold change and 0.962 fold change and 0.8268 fold change and 1.054 fold change and 1.403 fold change	effectively prevent induction of DNA damage	1.55 and 1.42 and 1.45 and 1.03 and 1.17 and 1.33	1.79 and 1.30 and 1.64 and 0.82 and 1.38 and 2.72
